In ChEMBL document CHEMBL1201862, “PubChem BioAssay data set” (2004):
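Following 48 hours of exposure in 96-well plates, responses at five concentrations were used to interpolate endpoints linearly. GI50 = concentration required for 50% inhibition of growth.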 Active and inactive are the calls of the source. Cut-off read from the data, not from the text of the source: active = GI50 up to about 1.1 µM and inactive = higher.

Legend:
Test in all cases: NCI anticancer screen, dose series, 48 h
HOP-62 = tested on: HOP-62
K562 = tested on: K562
OVCAR-3 = tested on: OVCAR-3
RPMI-8226 = tested on: RPMI-8226
NCI-H460 = tested on: NCI-H460
SW-620 = tested on: SW-620
UACC-62 = tested on: UACC-62
Hs-578T = tested on: Hs-578T
786-0 = tested on: 786-0
SNB-19 = tested on: SNB-19
A498 = tested on: A498
A549 = tested on: A549
DU-145 = tested on: DU-145
NCI-H522 = tested on: NCI-H522
UACC-257 = tested on: UACC-257
IGROV-1 = tested on: IGROV-1
CAKI-1 = tested on: CAKI-1
U-251 = tested on: U-251
M14 = tested on: M14
SNB-75 = tested on: SNB-75

| SMILES | GI50 (HOP-62) | GI50 (K562) | GI50 (OVCAR-3) | GI50 (RPMI-8226) | GI50 (NCI-H460) | GI50 (SW-620) | GI50 (UACC-62) | GI50 (Hs-578T) | GI50 (786-0) | GI50 (SNB-19) | GI50 (A498) | GI50 (A549) | GI50 (DU-145) | GI50 (NCI-H522) | GI50 (UACC-257) | GI50 (IGROV-1) | GI50 (CAKI-1) | GI50 (U-251) | GI50 (M14) | GI50 (SNB-75) |
| --- | --- | --- | --- | --- | --- | --- | --- | --- | --- | --- | --- | --- | --- | --- | --- | --- | --- | --- | --- | --- |
| CC(C)=NN/C(=N\c1ccc(Cl)cc1)NS(=O)(=O)c1ccc(C)cc1 | 69 µM (inactive) | 69.3 µM (inactive) | 31.1 µM (inactive) | 44.2 µM (inactive) | 57.8 µM (inactive) | > 100 µM (inactive) | 49 µM (inactive) | > 100 µM (inactive) | 62.4 µM (inactive) | > 100 µM (inactive) | 33 µM (inactive) | 62.4 µM (inactive) | 47.9 µM (inactive) | 56.8 µM (inactive) | 35.2 µM (inactive) | 77.4 µM (inactive) | 62.2 µM (inactive) | 96.8 µM (inactive) | > 100 µM (inactive) |  |
| Cc1nc2ccc(Cl)cc2c2c1CCS2 | > 100 µM (inactive) | 40.9 µM (inactive) | 47.8 µM (inactive) | 16.3 µM (inactive) | 52.2 µM (inactive) | > 100 µM (inactive) | 99.8 µM (inactive) | 28.6 µM (inactive) | 66.4 µM (inactive) | > 100 µM (inactive) | 22 µM (inactive) | 67 µM (inactive) | 91.2 µM (inactive) | > 100 µM (inactive) | 97.7 µM (inactive) | 47.8 µM (inactive) | 55.2 µM (inactive) | > 100 µM (inactive) | 71.3 µM (inactive) |  |
| OC[C@H]1O[C@@H](Oc2cc(O)cc(/C=C/c3ccc(O)cc3)c2)[C@H](O)[C@@H](O)[C@@H]1O [PICEID] | > 100 µM (inactive) | > 100 µM (inactive) | > 100 µM (inactive) | > 100 µM (inactive) | > 100 µM (inactive) | > 100 µM (inactive) | > 100 µM (inactive) | > 100 µM (inactive) | > 100 µM (inactive) | > 100 µM (inactive) | > 100 µM (inactive) | > 100 µM (inactive) | > 100 µM (inactive) | > 100 µM (inactive) | > 100 µM (inactive) | > 100 µM (inactive) | > 100 µM (inactive) | > 100 µM (inactive) |  | > 100 µM (inactive) |
| ClC1=C(Cl)C2OC3C=CCC3OC2C(Cl)=C1Cl (centres undefined) | > 100 µM (inactive) | 37.8 µM (inactive) | > 100 µM (inactive) | 23 µM (inactive) | 40 µM (inactive) | 41.2 µM (inactive) |  | 27.5 µM (inactive) | > 100 µM (inactive) |  | > 100 µM (inactive) |  | > 100 µM (inactive) | 32.2 µM (inactive) | 34.5 µM (inactive) | > 100 µM (inactive) | > 100 µM (inactive) | 52.8 µM (inactive) | > 100 µM (inactive) |  |
| COC(=O)C1=C(C(=O)OC)SC(=C2SC3=C(SC(=C4SCCS4)S3)S2)S1 | > 100 µM (inactive) | > 100 µM (inactive) |  | > 100 µM (inactive) |  | > 100 µM (inactive) | > 100 µM (inactive) | 86.5 µM (inactive) | > 100 µM (inactive) | > 100 µM (inactive) | > 100 µM (inactive) | > 100 µM (inactive) | > 100 µM (inactive) | > 100 µM (inactive) | > 100 µM (inactive) | > 100 µM (inactive) | > 100 µM (inactive) | 93.1 µM (inactive) | > 100 µM (inactive) | 0.0302 µM (active) |
| Cc1nn2c(C(=O)N/N=C/c3ccccc3O)c(C)nc2s1 | > 100 µM (inactive) | > 100 µM (inactive) | 3.09 µM (inactive) |  | 49.7 µM (inactive) | > 100 µM (inactive) | > 100 µM (inactive) | > 100 µM (inactive) | 47.8 µM (inactive) | > 100 µM (inactive) | 61.5 µM (inactive) | > 100 µM (inactive) | > 100 µM (inactive) | > 100 µM (inactive) | > 100 µM (inactive) | > 100 µM (inactive) | > 100 µM (inactive) | 38 µM (inactive) | 53 µM (inactive) | > 100 µM (inactive) |
| COC(=O)c1c2c(cc3c1CC1(Cc4ccccc4C1)C3)CCC2 | 28.2 µM (inactive) | 4.32 µM (inactive) | 18.9 µM (inactive) | 17.9 µM (inactive) | 30.5 µM (inactive) | 14.2 µM (inactive) | 20.9 µM (inactive) | 22.9 µM (inactive) | 27.9 µM (inactive) |  | 25.9 µM (inactive) | 28.7 µM (inactive) | 47.4 µM (inactive) | 14 µM (inactive) | 17.6 µM (inactive) | 22.5 µM (inactive) | 19.8 µM (inactive) | 20.9 µM (inactive) |  | 26.2 µM (inactive) |
| COc1cc(Br)cc2cc(-c3cn4c(n3)sc3ccccc34)c(=O)oc12 | 22.7 µM (inactive) | 13.6 µM (inactive) | 20 µM (inactive) | 21.6 µM (inactive) | 33.7 µM (inactive) | 20.8 µM (inactive) | 22.6 µM (inactive) | 15.6 µM (inactive) | 25.1 µM (inactive) | 32.7 µM (inactive) | 21.2 µM (inactive) | 36.5 µM (inactive) | 17.7 µM (inactive) | 14.5 µM (inactive) | 38.5 µM (inactive) | 14.7 µM (inactive) | 22.9 µM (inactive) | 25.2 µM (inactive) | 24.4 µM (inactive) |  |
| N#C/C=C(/NC(=O)Nc1ccccc1)N1CCCC1 |  | > 59.4 µM (inactive) | > 100 µM (inactive) | > 82 µM (inactive) | > 37.5 µM (inactive) | > 44.2 µM (inactive) | > 82.6 µM (inactive) | > 86.1 µM (inactive) | 31.9 µM (inactive) | > 25.2 µM (inactive) | > 100 µM (inactive) | > 40.7 µM (inactive) | > 50.9 µM (inactive) | > 47.4 µM (inactive) | 45.6 µM (inactive) | > 55.8 µM (inactive) | > 45.9 µM (inactive) | > 36.8 µM (inactive) | > 49 µM (inactive) |  |
| O=C(N/N=C/c1ccco1)c1cc(I)cc(I)c1O |  | 27.6 µM (inactive) |  | 15.2 µM (inactive) |  | 22.2 µM (inactive) | 16.6 µM (inactive) | 34.5 µM (inactive) | 15 µM (inactive) | 32.2 µM (inactive) | 12.9 µM (inactive) | 31.9 µM (inactive) | 23.4 µM (inactive) | 27.2 µM (inactive) |  | 15.8 µM (inactive) | 19.4 µM (inactive) |  | 8.24 µM (inactive) | 37.2 µM (inactive) |
| NC(=O)NC(=O)CCC(NS(=O)(=O)c1ccccc1)C(=O)NC(N)=O (centres undefined) | > 100 µM (inactive) | > 100 µM (inactive) | > 100 µM (inactive) |  | > 100 µM (inactive) | > 100 µM (inactive) | > 100 µM (inactive) | > 100 µM (inactive) | > 100 µM (inactive) | > 100 µM (inactive) | > 100 µM (inactive) | > 100 µM (inactive) | > 100 µM (inactive) | > 100 µM (inactive) | > 100 µM (inactive) | > 100 µM (inactive) | > 100 µM (inactive) | > 100 µM (inactive) | > 100 µM (inactive) | > 100 µM (inactive) |
